Measured values taken from ChEMBL document CHEMBL4385641 (Bioorg Med Chem, 2019).

Columns and labels:
Cannabinoid receptor 1 [1] = biological target: T1, Cannabinoid receptor 1 (Homo sapiens, UniProt P21554); assay: Inverse agonist activity at human CB1 receptor expressed in CHOK1 cells co-expressing Galphaq16 assessed as apparent equilibrium constant after 90 secs by […]-4 AM dye-based FLIPR assay; assay type: cell-based
Cannabinoid receptor 1 [2] = biological target: T1, Cannabinoid receptor 1; assay: Displacement of [3H]-CP55940 from human CB1 receptor expressed in CHO cell membranes
Cannabinoid receptor 2 = Cannabinoid receptor 2 (Homo sapiens, UniProt P34972); assay: Displacement of [3H]-CP55940 from human CB2 receptor expressed in CHO cell membranes
Chain of Cannabinoid receptor 2 (P34972 whole entry): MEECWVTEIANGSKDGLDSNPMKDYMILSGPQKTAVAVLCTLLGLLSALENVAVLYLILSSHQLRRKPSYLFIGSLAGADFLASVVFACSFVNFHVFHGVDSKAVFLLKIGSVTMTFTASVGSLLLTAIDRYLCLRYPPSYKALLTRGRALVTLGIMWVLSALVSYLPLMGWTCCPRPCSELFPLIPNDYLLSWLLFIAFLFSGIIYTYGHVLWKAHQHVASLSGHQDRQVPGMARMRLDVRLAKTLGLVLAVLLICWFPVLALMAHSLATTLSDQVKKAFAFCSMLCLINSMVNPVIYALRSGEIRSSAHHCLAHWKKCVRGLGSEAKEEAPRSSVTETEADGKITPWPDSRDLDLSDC

[3] = Permeability across apical to basolateral side in MDCK-MDR1 cells at 10 uM incubated for 1 hr by mass spectrometric method; assay type: ADME, cell-based, Canis lupus familiaris; settings: dog, mdck-mdr1, 1 h
Homo sapiens = species on record: Homo sapiens; assay: Selectivity ratio of Ki for displacement of [3H]-CP55940 from human CB2 receptor expressed in CHO cell membranes to Ki for displacement of [3H]-CP55940 from human CB1 receptor expressed in CHO cell membranes
[4] = Intrinsic clearance in human liver microsomes at 1 uM incubated for up to 120 mins by mass mass spectrometric method; assay type: ADME, Microsome; settings: liver microsomes, read-out: CLH
[5] = Half life in human liver microsomes at 1 uM by mass mass spectrometric method; assay type: ADME, Microsome; settings: liver microsomes

T1 sequence (P21554 whole entry): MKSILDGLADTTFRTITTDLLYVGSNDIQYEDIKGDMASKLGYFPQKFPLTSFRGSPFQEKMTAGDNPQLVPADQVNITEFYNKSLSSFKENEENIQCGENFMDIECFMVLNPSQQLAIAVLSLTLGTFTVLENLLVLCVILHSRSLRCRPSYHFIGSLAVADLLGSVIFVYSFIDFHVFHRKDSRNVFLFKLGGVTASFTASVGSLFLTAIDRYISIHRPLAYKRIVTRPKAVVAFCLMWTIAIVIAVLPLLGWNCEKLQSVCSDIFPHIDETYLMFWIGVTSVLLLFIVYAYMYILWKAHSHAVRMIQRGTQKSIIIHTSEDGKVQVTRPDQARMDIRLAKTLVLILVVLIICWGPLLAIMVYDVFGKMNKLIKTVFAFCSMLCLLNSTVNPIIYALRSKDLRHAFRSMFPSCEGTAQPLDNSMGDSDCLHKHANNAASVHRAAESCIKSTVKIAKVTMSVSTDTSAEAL

SMILES | Ke(app) (Cannabinoid receptor 1 [1]) [nM] | Ki (Cannabinoid receptor 1 [2]) [nM] | Ki (Cannabinoid receptor 2) [nM] | permeability [3] [%] | Ratio Ki (Homo sapiens) | microsomal CLint at 1 µM [4] [µL/min/mg] | half-life at 1 µM [5] [h]
O=C(NC1CCN(c2ncnc3c2nc(-c2ccccc2Cl)n3-c2ccc(Cl)cc2)CC1)OC1COC1 | 92 |  |  |  |  |  | 
O=S(=O)(CCC(F)(F)F)NC1CCN(c2ncnc3c2nc(-c2ccccc2Cl)n3-c2ccc(Cl)cc2)CC1 | 12 | 4 | 420 | 1 | 105 |  | 
O=C(CC1CCOCC1)NC1CCN(c2ncnc3c2nc(-c2ccccc2Cl)n3-c2ccc(Cl)cc2)CC1 | 510 |  |  |  |  |  | 
O=S(=O)(NC1CCN(c2ncnc3c2nc(-c2ccccc2Cl)n3-c2ccc(C(F)(F)F)nc2)CC1)c1ccccc1F | 0.5 | 4 | 400 |  | 100 |  | 
O=C(NC1CCN(c2ncnc3c2nc(-c2ccccc2Cl)n3-c2ccc(Cl)cc2)CC1)c1ccc(F)c(F)c1 | 0.7 | 3 | 5900 | 0.2 | 2000 |  | 
O=C(NC1CCN(c2ncnc3c2nc(-c2ccccc2Cl)n3-c2ccc(Cl)cc2)CC1)C1CCSCC1 | 26 | 3 | 1900 |  | 630 |  | 
NC(=O)c1ccc(-n2c(-c3ccccc3Cl)nc3c(N4CCC(NS(=O)(=O)c5ccc(F)c(F)c5)CC4)ncnc32)cc1 | 330 |  |  |  |  |  | 
CCOCC(=O)NC1CCN(c2ncnc3c2nc(-c2ccccc2Cl)n3-c2ccc(Cl)cc2)CC1 | 240 |  |  |  |  |  | 
O=C(NC1CCN(c2ncnc3c2nc(-c2ccccc2Cl)n3-c2ccc(Cl)cc2)CC1)c1ccccn1 | 140 |  |  |  |  |  | 
CC(C)(O)CC(=O)NC1CCN(c2ncnc3c2nc(-c2ccccc2Cl)n3-c2ccc(Cl)cc2)CC1 | 1700 |  |  |  |  |  | 
CN(Cc1ccccc1)C1CCN(c2ncnc3c2nc(-c2ccccc2Cl)n3-c2ccc(Cl)cc2)CC1 | 34 |  | 2700 |  | 64 |  | 
O/N=C(\c1ccc(F)cc1)C1CCN(c2ncnc3c2nc(-c2ccccc2Cl)n3-c2ccc(Cl)cc2)CC1 (stereo in doubt; 21) | 21 |  |  |  | > 1400 |  | 
O=S(=O)(NC1CCN(c2ncnc3c2nc(-c2ccccc2Cl)n3-c2ccc(Cl)cc2)CC1)c1ccc(F)cc1F | 2 |  | > 10000 | 0.1 | > 5000 |  | 
O=S(=O)(CC1CCCCC1)NC1CCN(c2ncnc3c2nc(-c2ccccc2Cl)n3-c2ccc(Cl)cc2)CC1 | 31 | 9 | > 10000 | < 0.1 | > 1100 |  | 
Clc1ccc(-n2c(-c3ccccc3Cl)nc3c(N4CCC(NCc5ccncc5)CC4)ncnc32)cc1 | 580 |  |  |  |  |  | 
Clc1ccc(-n2c(-c3ccccc3Cl)nc3c(N4CCC(c5nc6ccccc6[nH]5)CC4)ncnc32)cc1 | 12 |  | 830 |  | 18 |  | 
Clc1ccc(-n2c(-c3ccccc3Cl)nc3c(N4CCC(NCc5ccccc5)CC4)ncnc32)cc1 | 150 |  |  |  |  |  | 
CCCCC(=O)NC1CCN(c2ncnc3c2nc(-c2ccccc2Cl)n3-c2ccc(C(F)(F)F)nc2)CC1 | 4 | 3 | 420 | 28 | 140 |  | 
O=C(NC1CCN(c2ncnc3c2nc(-c2ccccc2Cl)n3-c2ccc(Cl)cc2)CC1)OCc1ccccc1 | 3 | 4 | 710 |  | 180 |  | 

SMILES | Ke(app) (Cannabinoid receptor 1 [1]) [nM] | Ki (Cannabinoid receptor 1 [2]) [nM] | Ki (Cannabinoid receptor 2) [nM] | permeability [3] [%] | Ratio Ki (Homo sapiens) | microsomal CLint at 1 µM [4] [µL/min/mg] | half-life at 1 µM [5] [h]
Cn1cc(-n2c(-c3ccccc3Cl)nc3c(N4CCC(NS(=O)(=O)c5ccc(F)c(F)c5)CC4)ncnc32)cn1 | 140 |  |  |  |  |  | 
CN1CCC(COC(=O)NC2CCN(c3ncnc4c3nc(-c3ccccc3Cl)n4-c3ccc(Cl)cc3)CC2)CC1 | 1500 |  |  |  |  |  | 
Clc1ccc(-n2c(-c3ccccc3Cl)nc3c(N4CCC(Nc5ccncc5)CC4)ncnc32)cc1 | 100 |  |  |  |  |  | 
O=C(NC1CCN(c2ncnc3c2nc(-c2ccccc2Cl)n3-c2ccc(Cl)cc2)CC1)c1ccc(F)cc1 | 1.1 | 2 | 10000 | 0.2 | 5000 |  | 
O=C(CN1CCOCC1)NC1CCN(c2ncnc3c2nc(-c2ccccc2Cl)n3-c2ccc(Cl)cc2)CC1 | 1100 |  |  |  |  |  | 
COCCOC(=O)NC1CCN(c2ncnc3c2nc(-c2ccccc2Cl)n3-c2ccc(Cl)cc2)CC1 | 6 | 17 | > 5000 | 13 | > 200 |  | 
O=S(=O)(NC1CCN(c2ncnc3c2nc(-c2ccccc2Cl)n3-c2ccc(Cl)cc2)CC1)c1ccc(F)cc1 | 1.1 | 3.3 | 9000 | 0.1 | > 2000 |  | 
O=S(=O)(NC1CCN(c2ncnc3c2nc(-c2ccccc2Cl)n3-c2ccc(F)cc2)CC1)c1ccccc1F | 21 | 2.6 | > 10000 |  | > 3000 |  | 
O=C(NC1CCN(c2ncnc3c2nc(-c2ccccc2Cl)n3-c2ccc(Cl)cc2)CC1)OC1CCOCC1 | 320 |  |  |  |  |  | 
O/N=C(\c1ccc(F)cc1)C1CCN(c2ncnc3c2nc(-c2ccccc2Cl)n3-c2ccc(Cl)cc2)CC1 (stereo in doubt; 20) [listing 1 of 2 here] |  | 5 | > 10000 |  |  | 19 | 1.1
CCCCCS(=O)(=O)NC1CCN(c2ncnc3c2nc(-c2ccccc2Cl)n3-c2ccc(Cl)cc2)CC1 | 29 | 9 | 570 | < 0.1 | 63 |  | 
COCCC(=O)NC1CCN(c2ncnc3c2nc(-c2ccccc2Cl)n3-c2ccc(Cl)cc2)CC1 | 370 |  |  |  |  |  | 
CS(=O)(=O)CCC(=O)NC1CCN(c2ncnc3c2nc(-c2ccccc2Cl)n3-c2ccc(Cl)cc2)CC1 | 6000 |  |  |  |  |  | 
O=S(=O)(NC1CCN(c2ncnc3c2nc(-c2ccccc2Cl)n3-c2ccc(C(F)(F)F)nc2)CC1)c1ccc(F)c(F)c1 | 1 | 10 | > 6000 |  | > 600 |  | 
O=C(NC1CCN(c2ncnc3c2nc(-c2ccccc2Cl)n3-c2ccc(Cl)cc2)CC1)C1CCS(=O)(=O)CC1 | > 10000 |  |  |  |  |  | 
Cc1cc(-n2c(-c3ccccc3Cl)nc3c(N4CCC(NS(=O)(=O)c5ccc(F)c(F)c5)CC4)ncnc32)no1 | 56 | 420 | > 10000 |  | > 20 |  | 
CN(Cc1ccc(F)cc1)C1CCN(c2ncnc3c2nc(-c2ccccc2Cl)n3-c2ccc(Cl)cc2)CC1 | 460 |  |  |  |  |  | 
O=C(NC1CCN(c2ncnc3c2nc(-c2ccccc2Cl)n3-c2ccc(Cl)cc2)CC1)OC1CCC1 | 1 | 0.6 | 1050 |  | 1800 |  | 
O=C(NC1CCN(c2ncnc3c2nc(-c2ccccc2Cl)n3-c2ccc(Cl)cc2)CC1)c1ccc(F)cc1F | 1.2 | 2 | > 7000 | < 0.1 | > 3500 |  | 

SMILES | Ke(app) (Cannabinoid receptor 1 [1]) [nM] | Ki (Cannabinoid receptor 1 [2]) [nM] | Ki (Cannabinoid receptor 2) [nM] | permeability [3] [%] | Ratio Ki (Homo sapiens) | microsomal CLint at 1 µM [4] [µL/min/mg] | half-life at 1 µM [5] [h]
Clc1ccc(-n2c(-c3ccccc3Cl)nc3c(N4CCC(Nc5ccccc5)CC4)ncnc32)cc1 | 1.4 | 6 | > 10000 | 0 | > 1600 |  | 
CC(C)(C)OCCC(=O)NC1CCN(c2ncnc3c2nc(-c2ccccc2Cl)n3-c2ccc(Cl)cc2)CC1 | 1.7 | 6 | 4900 | 20 | 820 |  | 
O/N=C(\c1ccc(F)cc1)C1CCN(c2ncnc3c2nc(-c2ccccc2Cl)n3-c2ccc(Cl)cc2)CC1 (stereo in doubt; 20) [listing 2 of 2 here] | 20 |  |  |  | > 2000 |  | 
O=C(NC1CCN(c2ncnc3c2nc(-c2ccccc2Cl)n3-c2ccc(Cl)cc2)CC1)C1CCOCC1 | 440 |  |  |  |  |  | 
O=C(NC1CCN(c2ncnc3c2nc(-c2ccccc2Cl)n3-c2ccc(C(F)(F)F)nc2)CC1)c1ccccc1 | 19 | 8 | 740 | 3 | 92 |  | 
Cn1nnnc1CCC(=O)NC1CCN(c2ncnc3c2nc(-c2ccccc2Cl)n3-c2ccc(Cl)cc2)CC1 | > 10000 |  |  |  |  |  | 
O=C(CC1CCOC1)NC1CCN(c2ncnc3c2nc(-c2ccccc2Cl)n3-c2ccc(Cl)cc2)CC1 (stereo not drawn) | 1000 |  |  |  |  |  | 
Nc1ccc(-n2c(-c3ccccc3Cl)nc3c(N4CCC(NS(=O)(=O)c5ccc(F)c(F)c5)CC4)ncnc32)cn1 | > 10000 |  |  |  |  |  | 
CC(C)(C)CC(=O)NC1CCN(c2ncnc3c2nc(-c2ccccc2Cl)n3-c2ccc(Cl)cc2)CC1 | 0.3 | 0.2 | 15 |  | 75 |  | 
Cn1ccc(-n2c(-c3ccccc3Cl)nc3c(N4CCC(NS(=O)(=O)c5ccc(F)c(F)c5)CC4)ncnc32)n1 | 120 |  |  |  |  |  | 
Clc1ccc(-n2c(-c3ccccc3Cl)nc3c(N4CCC(Nc5ncccn5)CC4)ncnc32)cc1 | 43 |  |  |  |  |  | 
CC(C(=O)NC1CCN(c2ncnc3c2nc(-c2ccccc2Cl)n3-c2ccc(Cl)cc2)CC1)c1ccccc1 (stereo not drawn) | 2 | 3 | 150 | < 0.1 | 50 |  | 
O=C(NC1CCN(c2ncnc3c2nc(-c2ccccc2Cl)n3-c2ccc(Cl)cc2)CC1)C1CCOC1 (stereo not drawn) | 150 |  |  |  |  |  | 
O=C(NC1CCN(c2ncnc3c2nc(-c2ccccc2Cl)n3-c2ccc(Cl)cc2)CC1)OCC1COC1 | 77 |  |  |  |  |  | 
O=C(CN1CCCCC1)NC1CCN(c2ncnc3c2nc(-c2ccccc2Cl)n3-c2ccc(Cl)cc2)CC1 | 220 |  |  |  |  |  | 
O=S(=O)(NC1CCN(c2ncnc3c2nc(-c2ccccc2Cl)n3-c2ccc(OC(F)F)nc2)CC1)c1ccccc1F | 0.7 | 1.6 | 190 |  | 120 |  | 
CC(=O)Nc1ccc(-n2c(-c3ccccc3Cl)nc3c(N4CCC(NS(=O)(=O)c5ccc(F)c(F)c5)CC4)ncnc32)cn1 | 2700 |  |  |  |  |  | 
Fc1ccc(CNC2CCN(c3ncnc4c3nc(-c3ccccc3Cl)n4-c3ccc(Cl)cc3)CC2)cc1 | 210 |  |  |  |  |  | 
O=S(=O)(NC1CCN(c2ncnc3c2nc(-c2ccccc2Cl)n3-c2cc(C(F)(F)F)[nH]n2)CC1)c1ccc(F)c(F)c1 | 5000 |  |  |  |  |  | 
